# US12575571B2, “1-amino-1-cyclopropanecarboxylic acid and methyl jasmonate mixtures and uses thereof” (Valent BioSciences LLC, priority 2022, dated 2026)
# What was measured:
# [1] = tested on: unripened apples, Imperial Gala variety; experiment: Apple coloration in Imperial Gala variety (percent red pixel area after foliar spray); type: in vivo; settings: 34 hours post spray; for Fold Change From control: vs 0.05% Regulaid control
# Method: (§1) 10 sets of unripened apples, Imperial Gala variety, harvested three weeks before the normal harvest date, were each foliar sprayed with either 1) 0.05% Regulaid® as a control, 2) 50 ppm methyl jasmonate, 3) 300 ppm methyl jasmonate, 4) 50 ppm ACC, 5) 300 ppm ACC or 6) a mixture of 50 ppm methyl jasmonate and 50 ppm ACC or 7) a mixture of 300 ppm methyl jasmonate and 300 ppm ACC. 34 hours post spray application percent red pixel area (shaded) was measured. Percent red pixel area is an indication of the coloration of the apple fruit.
# (§2) To determine if the mixture provided unexpected results, the observed combined efficacy (“OCE”) was divided by the expected combined efficacy (“ECE”) wherein the ECE is calculated by the Abbott method: ECE=A+B−(AB/100), wherein ECE is the expected combined efficacy and in which A and B are the fold change from control given by the single active ingredients. If the ratio between the OCE of the mixture and the ECE of the mixture is greater than 1, then greater than expected interactions are present in the mixture. (Gisi, Synergistic Interaction of Fungicides in Mixtures, The American Phytopathological Society, 86:11, 1273-1279,1996).
# [2] = tested on: unripened apples, Ultima Gala variety; experiment: Apple coloration in Ultima Gala variety (percent red pixel area after foliar spray); type: in vivo; settings: 34 hours post spray; for Fold Change From control: vs 0.05% Regulaid control
# Method: as §2
# as §1, with “Ultima” for “Imperial”
# [3] = 50 ppm (each active) foliar spray
# [4] = 300 ppm (each active) foliar spray
smiles,measurement,setting,value
CC/C=C\CC1C(=O)CCC1CC(=O)OC (centres unmarked) [methyl jasmonate],Average % Red Pixel Area,[1]; [3],63.31%
same,Fold Change From control,[1]; 50 ppm (each active),8.31
same,Average % Red Pixel Area,[1]; [4],47.60%
same,Fold Change From control,[1]; 300 ppm (each active),6.00
same,Average % Red Pixel Area,[2]; [3],36.64%
same,Fold Change From control,[2]; 50 ppm (each active),2.30
same,Average % Red Pixel Area,[2]; [4],46.37%
same,Fold Change From control,[2]; 300 ppm (each active),3.17
